Source: US6284785A, “1-arenesulfonyl-2-aryl-pyrrolidine and pyridine derivatives” (Hoffmann- La Roche Inc., priority 1999, dated 2001)

Target: T1, rat mGlu 1a receptor (Rattus norvegicus, UniProt P23385)
T1 construct: expressed in transfected cells; host or cells: EBNA cells (transient transfection)
Assay: [Ca2+]i measurements (FLIPR, Fluo-3 AM) on mGlu 1a transfected EBNA cells; agonist or antagonist (against 10 μM glutamate)
Assay type: cell-based
Conditions: for Remarks (agonist / antagonist): table of substituents of the Examples, column Remarks
Experimental: cDNA encoding rat mGlu 1a receptor obtained from Prof. Nakanishi (Kyoto, Japan) was transiently tranfected into EBNA cells using a procedure described by Schlaeger et. al, New Dev. New Appl. Anim Cell Techn., Proc. ESACT Meet., 15th (1998), 105-112 and 117-120. [Ca^2+ ]i measurements were performed on mGlu 1a transfected EBNA cells after incubation of the cells with Fluo-3 AM (0.5 μM final concentration) for 1hour at 37° C. followed by 4 washes with assay buffer (DMEM supplemented with Hank's salt and 20 mM HEPES. [Ca^2+ ]i measurements were done using a fluorometric imaging plate reader (FLIPR, Molecular Devices Corporation, La Jolla, Calif. USA). When compounds were evaluated as antagonists they were tested against 10 μM glutamate as agonist.
The inhibition (antagonists) or activation (agonists) curves were fitted with a four parameter logistic equation giving EC50, IC50, and Hill coefficient using the iterative non linear curve fitting software Origin (Microcal Software Inc., Northampton, Mass., USA).

T1 sequence (P23385 19-1199): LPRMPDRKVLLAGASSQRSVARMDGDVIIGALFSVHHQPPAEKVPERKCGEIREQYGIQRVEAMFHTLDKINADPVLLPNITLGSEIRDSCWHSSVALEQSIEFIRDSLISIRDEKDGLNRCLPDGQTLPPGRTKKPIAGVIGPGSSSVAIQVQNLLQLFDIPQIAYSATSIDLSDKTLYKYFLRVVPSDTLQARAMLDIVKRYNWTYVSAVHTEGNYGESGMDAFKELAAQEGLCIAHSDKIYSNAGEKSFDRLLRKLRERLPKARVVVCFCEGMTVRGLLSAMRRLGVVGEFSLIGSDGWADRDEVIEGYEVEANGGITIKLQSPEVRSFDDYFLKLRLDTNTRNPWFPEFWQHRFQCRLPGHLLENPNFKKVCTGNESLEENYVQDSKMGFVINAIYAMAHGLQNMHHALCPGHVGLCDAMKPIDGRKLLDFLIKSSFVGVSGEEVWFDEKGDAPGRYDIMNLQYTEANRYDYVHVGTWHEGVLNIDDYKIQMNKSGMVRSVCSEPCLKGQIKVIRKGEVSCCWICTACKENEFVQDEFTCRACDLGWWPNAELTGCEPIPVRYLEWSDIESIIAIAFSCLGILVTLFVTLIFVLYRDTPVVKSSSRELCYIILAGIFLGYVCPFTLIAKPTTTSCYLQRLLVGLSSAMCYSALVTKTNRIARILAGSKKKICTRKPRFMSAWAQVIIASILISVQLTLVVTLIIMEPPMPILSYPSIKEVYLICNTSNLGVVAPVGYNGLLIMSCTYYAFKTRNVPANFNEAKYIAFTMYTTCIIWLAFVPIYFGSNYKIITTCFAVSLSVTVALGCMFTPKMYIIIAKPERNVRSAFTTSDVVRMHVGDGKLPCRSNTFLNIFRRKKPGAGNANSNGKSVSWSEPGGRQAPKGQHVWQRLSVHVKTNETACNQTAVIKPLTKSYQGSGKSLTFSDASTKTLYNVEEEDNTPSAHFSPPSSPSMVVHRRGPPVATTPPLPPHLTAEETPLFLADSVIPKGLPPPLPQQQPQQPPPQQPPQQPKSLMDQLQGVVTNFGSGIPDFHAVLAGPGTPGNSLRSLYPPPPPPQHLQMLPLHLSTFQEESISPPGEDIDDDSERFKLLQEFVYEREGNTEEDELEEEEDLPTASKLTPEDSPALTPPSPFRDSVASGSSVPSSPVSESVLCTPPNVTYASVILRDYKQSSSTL

Row | agonistic / antagonistic activity to the mGlu receptor | Remarks (agonist / antagonist) | SMILES
1 | agonistic activty | Agonist | CN(C)c1ccc(C2CCCN2S(=O)(=O)c2ccc(Cl)cc2)cc1F (racemic) [Example 40, (RS)-1-(4-Chloro-benzenesulfonyl)-2-(4-dimethylamino-3-fluoro-phenyl)-pyrrolidine]
2 | – | Antagonist | Cc1ccc(S(=O)(=O)N2CCCC2c2ccc(N(C)C)c(F)c2)cc1 (racemic) [Example 41, (RS)-1-(p-Toluenesulfonyl)-2-(4-dimethylamino-3-fluoro-phenyl)-pyrrolidine]
3 | – | Agonist | Cc1ccc(S(=O)(=O)N2CCCC2c2ccc(F)c(Cl)c2)cc1 (racemic) [Example 42, (RS)-2-(3-Chloro-4-fluoro-phenyl)-1-(toluene-4-sulfonyl)-pyrrolidine]
4 | – | Antagonist | O=S(=O)(c1ccc(Cl)cc1)N1CCCC1c1ccc(F)c(Cl)c1 (racemic) [Example 43, (RS)-1-(4-Chloro-benzenesulfonyl)-2-(3-chloro-4-fluoro-phenyl)-pyrrolidine]
5 | – | Antagonist | O=S(=O)(c1ccc(F)cc1)N1CCCC1c1ccc(F)c(Cl)c1 (racemic) [Example 44, (RS)-2-(3-Chloro-4-fluoro-phenyl)-1-(4-fluoro-benzenesulfonyl)-pyrrolidine]
6 | – | Antagonist | CN(C)c1ccc(C2CCCN2S(=O)(=O)c2ccc(Cl)cc2)cc1Cl (racemic) [Example 45, (RS)-1-(4-Chloro-benzenesulfonyl)-2-(4-dimethylamino-3-chloro-phenyl)-pyrrolidine]
7 | – | Antagonist | CN(C)c1ccc(C2CCCN2S(=O)(=O)c2ccc(F)cc2)cc1Cl (racemic) [Example 46, (RS)-1-(4-fluoro-benzenesulfonyl)-2-(4-diimethylamino-3-chloro-phenyl)-pyrrolidine]
8 | – | Antagonist | Cc1ccc(S(=O)(=O)N2CCCC2c2ccc(Cl)c(Cl)c2)cc1 (racemic) [Example 47, (RS)-2-(3,4-Dichloro-phenyl)-1-(toluene-4-sufonyl)-pyrrolidine]
9 | agonistic activty | Agonist | Cc1ccc(S(=O)(=O)N2CCCC2c2ccc(C(F)(F)F)cc2)cc1 (racemic) [Example 48, (RS)-1-(Toluene-4-sulfonyl)-2-(4-trifluoromethyl-phenyl)-pyrrolidine]
10 | – | Antagonist | O=S(=O)(c1ccc(F)cc1)N1CCCC1c1ccc(C(F)(F)F)cc1 (racemic) [Example 50, (RS)-1-(4-Floro-benzenesulfonyl)-2-(4-trifluoromethyl-phenyl)-pyrrolidine]
11 | – | Antagonist | Cc1ccc(S(=O)(=O)N2CCCC2c2ccccc2Cl)cc1 (racemic) [Example 51, (RS)-2-(2-Chloro-phenyl)-1-(toluene-4-sulfonyl)-pyrrolidine]
12 | agonistic activty | Agonist | Cc1ccc(S(=O)(=O)N2CCCC2c2ccsc2)cc1 (racemic) [Example 55, (RS)-2-Thien-3-yl-1-(toluene-4-sulfonyl)-pyrrolidine]
13 | agonistic activty | Agonist | O=S(=O)(c1ccc(Cl)cc1)N1CCCC1c1ccsc1 (racemic) [Example 56, (RS)-1-(4-Chloro-benzenesulfonyl)-2-thien-3-yl-pyrrolidine]
14 | agonistic activty | Agonist | Cc1ccc(S(=O)(=O)N2CCCC2c2ccc(Cl)c(C)c2)cc1 (racemic) [Example 58, (RS)-2-(4-Chloro-3-methyl-phenyl)-1-(toluene-4-sulfonyl)-pyrrolidine]
15 | – | Antagonist | CCCc1ccc(S(=O)(=O)N2CCCC2c2ccc(F)cc2)cc1 (racemic) [Example 59, (RS)-2-(4-Fluoro-phenyl)-1-(4-propyl-benzenesulfonyl)-pyrrolidine]
16 | agonistic activty | Agonist | O=S(=O)(c1ccc(C(F)(F)F)cc1)N1CCCC1c1ccc(F)cc1 (racemic) [Example 60, (RS)-2-(4-Fluoro-phenyl)-1-(4-trifluoromethyl-benzenesulfonyl)-pyrrolidine]
17 | – | Antagonist | Cc1cc(C)c(S(=O)(=O)N2CCCC2c2ccc(F)cc2)c(C)c1 (racemic) [Example 61, (RS)-2-(4-Fluoro-phenyl)-1-(2,4,6-trimethyl-benzenesulfonyl)-pyrrolidine]
18 | – | Antagonist | Cc1ccc(S(=O)(=O)N2CCCC2c2ccc(F)cc2)cc1Cl (racemic) [Example 62, (RS)-1-(3-Chloro-4-methyl-benzenesulfonyl)-2-(4-fluoro-phenyl)-pyrrolidine]

Row | agonistic / antagonistic activity to the mGlu receptor | Remarks (agonist / antagonist) | SMILES
19 | – | Antagonist | O=S(=O)(c1ccccc1F)N1CCCC1c1ccc(F)cc1 (racemic) [Example 63, (RS)-1-(2-Fluoro-benzenesulfonyl)-2-(4-fluoro-phenyl)-pyrrolidine]
20 | – | Antagonist | O=S(=O)(c1cccc(F)c1)N1CCCC1c1ccc(F)cc1 (racemic) [Example 64, (RS)-1-(3-Fluoro-benzenesulfonyl)-2-(4-fluoro-phenyl)-pyrrolidine]
21 | – | Antagonist | N#Cc1ccccc1S(=O)(=O)N1CCCC1c1ccc(F)cc1 (racemic) [Example 65, (RS)-1-(2-Cyano-benzenesulfonyl)-2-(4-fluoro-phenyl)-pyrrolidine]
22 | – | Antagonist | O=S(=O)(c1ccc2ccccc2c1)N1CCCC1c1ccc(F)cc1 (racemic) [Example 66, (RS)-2-(4-Fluoro-phenyl)-1-(naphthalene-2-sulfonyl)-pyrrolidine]
23 | – | Antagonist | Cc1ccc(S(=O)(=O)N2CCCC2c2ccc(C)cc2C)cc1 (racemic) [Example 67, (RS)-2-(2,4-Dimethyl-phenyl)-1-(toluene-4-sulfonyl)-pyrrolidine]
24 | – | Antagonist | Cc1ccc(C2CCCN2S(=O)(=O)c2ccc(F)cc2)c(C)c1 (racemic) [Example 68, (RS)-2-(2,4-Dimethyl-phenyl)-1-(4-fluoro-benzenesulfonyl)-pyrrolidine]
25 | agonistic activty | Agonist | Cc1ccc(S(=O)(=O)N2CCCC2c2ccco2)cc1 (racemic) [Example 69, (RS)-2-Furan-2-yl-1-(toluene-4-sulfonyl)-pyrrolidine]
26 | – | Antagonist | O=S(=O)(c1ccc(F)cc1)N1CCCC1c1ccco1 (racemic) [Example 70, (RS)-1-(4-Fluoro-benzenesulfonyl)-2-furan-2-yl-pyrrolidine]
27 | – | Antagonist | O=S(=O)(c1ccc(Cl)cc1)N1CCCC1c1ccco1 (racemic) [Example 71, (RS)-1-(4-Chloro-benzenesulfonyl)-2-furan-2-yl-pyrrolidine]
28 | agonistic activty | Agonist | Cc1ccc(S(=O)(=O)N2CCCC2c2ccc(N(C)C)cc2)cc1 (racemic) [Example 72, (RS)-2-(4-N,N-Dimethylamino-phenyl)-1-(toluene-4-sulfonyl)-pyrrolidine]
29 | – | Antagonist | CN(C)c1ccc(C2CCCN2S(=O)(=O)c2ccc(F)cc2)cc1 (racemic) [Example 73, (RS)-2-(4-N,N-Dimethylamino-phenyl)-1-(4-fluoro-benzenesulfonyl)-pyrrolidine]
30 | – | Antagonist | O=S(=O)(c1ccccc1)N1CCCC1c1ccc(C(F)(F)F)cc1 (racemic) [Example 75, (RS)-1-Benzenesulfonyl-2-(4-trifluoromethyl-phenyl)-pyrrolidine]
31 | agonistic activty | Agonist | CCc1ccc(C2CCCN2S(=O)(=O)c2ccc(C)cc2)cc1 (racemic) [Example 78, (RS)-2-(4-Ethyl-phenyl)-1-(toluene-4-sulfonyl)-pyrrolidine]
32 | – | Antagonist | CCc1ccc(C2CCCN2S(=O)(=O)c2ccc(Cl)cc2)cc1 (racemic) [Example 79, (RS)-2-(4-Ethyl-phenyl)-1-(4-chloro-benzenesulfonyl)-pyrrolidine]
33 | – | Antagonist | CCc1ccc(C2CCCN2S(=O)(=O)c2ccc(F)cc2)cc1 (racemic) [Example 80, (RS)-2-(4-Ethyl-phenyl)-1-(4-fluoro-benzenesulfonyl)-pyrrolidine]
34 | agonistic activty | Agonist | O=S(=O)(c1ccc(CO)cc1)N1CCCC1c1ccc(F)cc1 (racemic) [Example 84, (RS)-2-(4-Fluoro-phenyl)-1-(4-hydroxymethyl-benzenesulfonyl)-pyrrolidine]
35 | agonistic activty | Agonist | COCc1ccc(S(=O)(=O)N2CCCC2c2ccc(F)cc2)cc1 (racemic) [Example 85, (RS)-2-(4-Fluoro-phenyl)-1-(4-methoxymethyl-benzenesulfonyl)-pyrrolidine]

Row | SMILES | agonistic / antagonistic activity to the mGlu receptor | Remarks (agonist / antagonist)
36 | Cc1ccc(S(=O)(=O)N2CCCC2c2cccnc2)cc1 (racemic) [Example 83, (RS)-3-[1-(Toluene-4-sulfonyl)-pyrrolidin-2-yl]-pyridine] | agonistic activty | Agonist
